Results reported in patent US6914045B2, “Glycopeptide antibiotics” (Wyeth Holdings Corporation, priority 2001, dated 2005).

Legend:
Enterococcus sp. = assay: in vitro antibacterial evaluation, MIC by broth dilution; assay type: cell-based; details: broth dilution, 18 hours at 35° C.
Outline: (§1)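 Broth dilution per NCCLS standard M7-A2 in Muller-Hinton II […], with an inoculum of 5×10^5 CFU/mL and antibiotic spanning 64-0.06 μg/mL. The MIC is the lowest concentration that inhibits growth of the organism.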

Staphylococcus sp. = assay: as above; assay type: cell-based; details: broth dilution, 18 hours at 35° C.
Outline: as §1

Streptococcus sp. = assay: as above; assay type: cell-based; details: broth dilution, 18 hours at 35° C.
Outline: as §1

[1] = anatomic pathology (histopathology of heart and kidney) in mice; assay type: in vivo; details: CD-1 mice, 20 mg/kg intravenously daily for 9 days, necropsy day 10, microscopic histopathology
Description: Samples of tissues from necropsied mice were formalin-fixed, paraffin-embedded, sectioned, stained with hematoxylin and eosin, and examined microscopically. Histopathologic findings were recorded. These findings were subjectively graded on a scale corresponding to slight, mild, moderate, marked and severe as compared to untreated controls.

Escherichia coli = assay: in vitro antibacterial evaluation, MIC by broth dilution; assay type: cell-based; details: 18 hours at 35° C.
Outline: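 Broth dilution in Muller-Hinton II medium per NCCLS standard M7-A2, with an inoculum of 5×10^5 CFU/mL and antibiotic tested over 64-0.06 μg/mL. MIC was taken as the lowest concentration inhibiting visible growth.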

CN=C1N(C)CC(CC2NC(=O)C(Cc3ccc(OC4OC(CO)C(OC5OC(CO)C(O)C(O)C5O)C(O)C4O)cc3)NC(=O)C(C(C)c3ccccc3)NC(=O)CNC(=O)C(CO)NC(=O)C(CC3CN(C)C(=NC)N3C3OC(CO)C(O)C(O)C3O)NC2=O)N1C (stereo not drawn) [Example 74, Cyclo[3-[1,3-dimethyl-2-(methylimino)imidazolidin-4-yl]alanyl-3-[3-hexopyranosyl-1-methyl-2-(methylimino)imidazolidin-4-yl]alanylserylglycyl-β-methylphenylalanyl-O-(4-O-hexopyranosylhexopyranosyl)tyrosyl]]
>128 mg/L: MIC Enterococcus faecalis (ATCC 29212) (Enterococcus sp.; Enterococcus faecalis (ATCC 29212)) | MIC Enterococcus faecalis (GC 4552) (Enterococcus sp.; Enterococcus faecalis (GC 4552)) | MIC Enterococcus faecalis (GC 4553) (Enterococcus sp.; Enterococcus faecalis (GC 4553)) | MIC Enterococcus faecalis (GC 4554) (Enterococcus sp.; Enterococcus faecalis (GC 4554)) | MIC Enterococcus faecalis (GC 6189) (Enterococcus sp.; Enterococcus faecalis (GC 6189)) | MIC Enterococcus faecium (GC 2243) (Enterococcus sp.; Enterococcus faecium (GC 2243)) | MIC Enterococcus faecium (GC 4556) (Enterococcus sp.; Enterococcus faecium (GC 4556)) | MIC Enterococcus faecalis (ATCC 29212) (Enterococcus sp.) | MIC Enterococcus faecalis (GC 2242) (Enterococcus sp.) | MIC Enterococcus faecalis (GC 2691) (Enterococcus sp.) | MIC Enterococcus faecalis (GC 3059) (Enterococcus sp.) | MIC Enterococcus faecalis (GC 4552) (Enterococcus sp.) | MIC Enterococcus faecalis (GC 4553) (Enterococcus sp.) | MIC Enterococcus faecalis (GC 4554) (Enterococcus sp.) | MIC Enterococcus faecalis (GC 6189) (Enterococcus sp.) | MIC Enterococcus faecium (GC 2243) (Enterococcus sp.) | MIC Enterococcus faecium (GC 4556) (Enterococcus sp.) | MIC Enterococcus faecalis (GC 2242) (Enterococcus sp.; strain GC 2242) | MIC Enterococcus faecalis (GC 2691) (Enterococcus sp.; strain GC 2691) | MIC Enterococcus faecalis (GC 3059) (Enterococcus sp.; strain GC 3059) | MIC Staphylococcus aureus (ATCC 29213) (Staphylococcus sp.; strain ATCC 29213) | MIC Staphylococcus aureus (GC 1131) (Staphylococcus sp.; strain GC 1131) | MIC Staphylococcus aureus (GC 3051) (Staphylococcus sp.; strain GC 3051) | MIC Staphylococcus aureus (GC 3053) (Staphylococcus sp.; strain GC 3053) | MIC Staphylococcus aureus (GC 4541) (Staphylococcus sp.; strain GC 4541) | MIC Staphylococcus aureus (GC 4542) (Staphylococcus sp.; strain GC 4542) | MIC Staphylococcus aureus-SMITH (GC 4543) (Staphylococcus sp.; strain GC 4543) | MIC Staphylococcus aureus (GC 4544) (Staphylococcus sp.; strain GC 4544) | MIC Staphylococcus aureus (GC 4545) (Staphylococcus sp.; strain GC 4545) | MIC Staphylococcus haemolyticus (GC 4546) (Staphylococcus sp.; strain GC 4546) | MIC Coagulase Negative Staphylococcus (GC 4547) (Staphylococcus sp.; strain GC 4547) | MIC Coagulase Negative Staphylococcus (GC 4548) (Staphylococcus sp.; strain GC 4548) | MIC Coagulase Negative Staphylococcus (GC 4549) (Staphylococcus sp.; strain GC 4549) | MIC Coagulase Negative Staphylococcus (GC 4551) (Staphylococcus sp.; strain GC 4551) | MIC Coagulase Negative Staphylococcus (GC 6257) (Staphylococcus sp.; strain GC 6257) | MIC Streptococcus pneumoniae (ATCC 6301) (Streptococcus sp.) | MIC Streptococcus pneumoniae (GC 4565) (Streptococcus sp.) | MIC Streptococcus pyogenes (GC 4563) (Streptococcus sp.) | MIC Streptococcus pneumoniae (ATCC 6301) (Streptococcus sp.; strain ATCC 6301) | MIC Streptococcus pyogenes (GC 4563) (Streptococcus sp.; strain GC 4563) | MIC Streptococcus pneumoniae (GC 4565) (Streptococcus sp.; strain GC 4565) | MIC Escherichia coli (ATCC 25922) (Escherichia coli) | MIC Escherichia coli (GC 4559) (Escherichia coli) | MIC Escherichia coli (GC 4560) (Escherichia coli)
0: Anatomical Pathology (Day 10), Heart [1] | Anatomical Pathology (Day 10), Kidney [1]
128 mg/L: MIC Enterococcus avium (GC 4558) (Enterococcus sp.; Enterococcus avium (GC 4558)) | MIC Enterococcus faecium (GC 4557) (Enterococcus sp.; Enterococcus faecium (GC 4557)) | MIC Enterococcus avium (GC 4558) (Enterococcus sp.) | MIC Enterococcus faecium (GC 4557) (Enterococcus sp.) | MIC Streptococcus agalactiae (GC 4564) (Streptococcus sp.) | MIC Streptococcus pneumoniae (GC 1894) (Streptococcus sp.) | MIC Streptococcus pneumoniae (GC 1894) (Streptococcus sp.; strain GC 1894) | MIC Streptococcus agalactiae (GC 4564) (Streptococcus sp.; strain GC 4564)
